# Measured values: patent publication US9440941B2, “Substituted chroman-6-yloxy-cycloalkanes and their use as pharmaceuticals” (SANOFI, priority 2013, dated 2016)
# Where a name gives a salt, the structure may show the parent alone.
# Target: T1, human NCX1 (Homo sapiens, UniProt P32418)
# T1 construct: expressed in transfected cells
# Experiment: Inhibition of Ca2+ influx into cells (NCX1 reverse mode), FLIPR Fluo-4 assay
# Assay type: cell-based
# Conditions: at 10 μM; NCX1 reverse mode; IC50 value not determined; read-out: Inhibition in % at 10 μM (NCX1rv)
# Method in brief: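 Ca2+ influx via reverse-mode exchange was evoked with gramicidin (20 µM final) after 45 min compound exposure at 16 °C in stably transfected CHO cells. Fluo-4 signal (520 nm) was followed on FLIPR at 2 s intervals. Max–min fluorescence gave percentage inhibition, from which IC50 was calculated.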
row,Molecule,inhibition at 10 µM [%]
1,Cc1ccccc1C1CCc2cc(OC3CCC(NCCC4CCOCC4)CC3)ccc2O1 (stereo not drawn) [compound 196],97

# Same assay, conditions: inhibition of NCX1 in reverse mode (Ca2+ influx into cells); read-out: NCX1rv IC50
row,Molecule,IC50 [µM]
1,"Cc1ccccc1[C@H]1CCc2cc(O[C@H]3CC[C@H](C(=O)NCCO)CC3)ccc2O1 [Example 267, trans-4-((R)-2-o-tolyl-chroman-6-yloxy)-cyclohexanecarboxylic acid (2-hydroxy-ethyl)-amide]",0.2
2,c1ccc(C2CCc3cc(OC4CCC(NCc5ccoc5)CC4)ccc3O2)cc1 (stereo not drawn) [compound 103],0.8
3,Cc1ccnn1CCC(=O)N[C@H]1CC[C@H](Oc2ccc3c(c2)CCC(c2ccccc2)O3)CC1 (relative stereo) [compound 42],0.2
4,c1ccc(C2CCc3cc(O[C@H]4CC[C@H](NCc5ccsc5)CC4)ccc3O2)cc1 (relative stereo) [compound 50],0.6
5,"N-(2-Hydroxy-1,1-dimethyl-ethyl)-4-(2-phenylchroman-6-yloxy)-cyclohexanecarboxamide [compound 151]",1.3
6,CC(=O)N[C@H]1CC[C@@H](Oc2ccc3c(c2)CCC(c2ccccc2)O3)CC1 (relative stereo) [compound 6],0.5
7,CC(C)(C)OCCCNC1CCC(Oc2ccc3c(c2)CCC(c2ccccc2)O3)CC1 (stereo not drawn) [compound 122],1.2
8,"Cc1ccccc1C1CCc2cc(O[C@H]3CC[C@@H](C(=O)NCCO)CC3)ccc2O1 (single isomer, unassigned) [Example 270, cis-4-(2-o-tolyl-chroman-6-yloxy)-cyclohexanecarboxylic acid (2-hydroxy-ethyl)-amide]",0.1
9,Cc1ccccc1C1CCc2cc(OC3CCC(NCCN4CCSCC4)CC3)ccc2O1 (stereo not drawn) [compound 209],3.2
10,"O=C(OC1CCC(Oc2ccc3c(c2)CCC(c2ccccc2)O3)CC1)c1ccncc1F (stereo not drawn) [compound 89, 3-Fluoro-isonicotinic acid 4-(2-phenyl-chroman-6-yloxy)-cyclohexyl ester]",0.4
11,"N[C@H]1CC[C@@H](Oc2ccc3c(c2)CCC(c2ccccc2)O3)CC1 (relative stereo) [compound 2, hydrochloride]",1.3
12,"N-(1,3-Dimethylbutyl)-4-(2-phenylchroman-6-yloxy)-cyclohexylamine [compound 141]",1
13,CNC(=O)CNC(=O)C1CCC(Oc2ccc3c(c2)CCC(c2cccc(F)c2C)O3)CC1 (stereo not drawn) [compound 281],0.5
14,CCCN[C@H]1CC[C@H](Oc2ccc3c(c2)CC[C@@H](c2ccccc2)O3)CC1 [compound 18],0.5
15,Cc1n[nH]c(C)c1CCC(=O)N[C@H]1CC[C@H](Oc2ccc3c(c2)CCC(c2ccccc2F)O3)CC1 (relative stereo) [compound 234],0.1
16,Cc1cc2c(cc1OC1CCC(C(=O)NCCO)CC1)CCC(c1ccccc1C)O2 (stereo not drawn) [compound 288],1.9
17,O=C(Cn1cccn1)N[C@H]1CC[C@H](Oc2ccc3c(c2)CCC(c2ccccc2F)O3)CC1 (relative stereo) [compound 236],0.1
18,Cc1ccc(F)cc1C1CCc2cc(O[C@H]3CC[C@H](NC(=O)CN)CC3)ccc2O1 (relative stereo) [compound 186],0.4

row,Molecule,IC50 [µM]
1,COCC(C)NC1CCC(Oc2ccc3c(c2)CCC(c2ccccc2F)O3)CC1 (stereo not drawn) [compound 219],2.4
2,N-Cyclobutyl-4-(2-phenylchroman-6-yloxy)-cyclohexylamine [compound 142],0.6
3,Cc1ccccc1C1CCc2cc(O[C@H]3CC[C@H](NC(=O)CCn4cccn4)CC3)ccc2O1 (relative stereo) [compound 153],1.2
4,"Cc1c(F)cccc1C1CCc2cc(OC3CCC(C(=O)NC4CCCCC4O)CC3)ccc2O1 (single isomer, unassigned) [compound 286]",0.5
5,"c1ccc(C2CCc3cc(O[C@H]4CC[C@H](N(CC5CC5)CC5CC5)CC4)ccc3O2)cc1 (stereo partly drawn) [compound 80, N,N-Bis(cyclopropylmethyl)-[trans-4-(2-phenylchroman-6-yloxy)]-cyclohexylamine]",0.5
6,"Cc1ccccc1C1CCc2cc(O[C@H]3CC[C@H](N(CC4CCOC4)CC4CCOC4)CC3)ccc2O1 (relative stereo) [compound 155, Bis-(tetrahydrofuran-3-ylmethyl)-[trans-4-(2-o-tolyl-chroman-6-yloxy)-cyclohexyl]-amine]",5.3
7,CO[C@H](C)C(=O)N[C@H]1CC[C@H](Oc2ccc3c(c2)CCC(c2ccccc2F)O3)CC1 (stereo partly drawn) [compound 255],0.2
8,CCCC(C)NC1CCC(Oc2ccc3c(c2)CCC(c2ccccc2)O3)CC1 (stereo not drawn) [compound 106],0.8
9,O=C(NCc1ccno1)C1CCC(Oc2ccc3c(c2)CCC(c2ccccc2)O3)CC1 (stereo not drawn) [compound 13],0.3
10,Cc1c(F)cccc1C1CCc2cc(OC3CCC(C(=O)NCCNS(C)(=O)=O)CC3)ccc2O1 (stereo not drawn) [compound 277],0.3
11,"c1ccc(C2CCc3cc(O[C@H]4CC[C@H](NCC5CCCCC5)CC4)ccc3O2)cc1 (stereo partly drawn) [compound 63, N-(Cyclohexylmethyl)-[trans-4-(2-phenylchroman-6-yloxy)]-cyclohexylamine]",0.6
12,N-((S)-2-Methoxy-1-methyl-ethyl)-4-(2-phenylchroman-6-yloxy)-cyclohexylamine [compound 140],1.4
13,CCC(C)CCNC1CCC(Oc2ccc3c(c2)CCC(c2ccccc2)O3)CC1 (stereo not drawn) [compound 114],0.7
14,"O=C(NCCO)C1CCC(Oc2ccc3c(c2)CC[C@@H](c2ccccc2)O3)CC1 (stereo partly drawn) [compound 102, N-(2-Hydroxyethyl)-4-((S)-2-phenylchroman-6-yloxy)-cyclohexanecarboxamide]",1.1
15,"Cc1ccccc1C1CCc2cc(O[C@H]3CC[C@@H](C(=O)NCCO)CC3)ccc2O1 (single isomer, unassigned) [Example 269, cis-4-(2-o-tolyl-chroman-6-yloxy)-cyclohexanecarboxylic acid (2-hydroxy-ethyl)-amide]",0.4
16,c1ccc(C2CCc3cc(OC4CCC(NC5CC5)CC4)ccc3O2)cc1 (stereo not drawn) [compound 123],1
17,"Cc1nc(CN(Cc2csc(C)n2)[C@H]2CC[C@H](Oc3ccc4c(c3)CCC(c3ccccc3)O4)CC2)cs1 (stereo partly drawn) [compound 86, N,N-Bis(2-methylthiazol-4-ylmethyl)-[trans-4-(2-phenylchroman-6-yloxy)]-cyclohexylamine]",0.8

# Target: T1, human NCX1
# Experiment: Inhibition of Ca2+ efflux out of cells (NCX1 forward mode), FLIPR calcium assay
# Assay type: cell-based
# Conditions: CHO cells stably expressing human NCX1; Ca2+ efflux after Ionomycin; read-out: NCX1fw IC50 (inhibition of NCX1 in forward mode)
# Text: The sodium/calcium exchanger NCX1 can transport calcium ions and sodium ions through the cell membrane. The transport is an exchange of Ca^2+ and Na^+ in two directions depending on membrane potential and ion gradients. At the first direction, named “forward mode” or “calcium export mode”, Ca^2+ is transported out of the cell and Na^+ is transported into the cell. At the other direction, named “reverse mode” or “calcium import mode”, the transport directions are vice versa. The effect of the compounds of the invention on NCX1 was determined in CHO cells stably expressing human NCX1 (gene symbol SLC8A1; cf. WO 2009/115238). The assay is based on the monitoring of intracellular Ca^2+ concentrations using a calcium-sensitive fluorescence dye which is detected by means of a FLIPR device (Fluorimetric Imaging Plate Reader, Molecular Devices).
# Assay Technology—Forward Mode
# The assay is based on the monitoring of intracellular Ca^2+ concentrations using the PBX Calcium Assay Kit from BD (Becton, Dickinson and Company) with calcium indicator dye 51-9000177BKa (BD, 640177). CHO cells expressing NCX1 were loaded with the dye, and after a preincubation period with the test compound, lonomycin (Calbiochem, 407950) was added. lonomycin is an ionophor for Ca^2+ ions mediating an increase of intracellular Ca^2+ ions. Consequently, intracellular Ca^2+ ions are exchanged against extracellular Na^+ ions (Ca^2+ efflux, forward mode). The decrease of intracellular Ca^2+ ions was detected by measuring the fluorescence of the calcium indicator dye at a wavelength of 520 nm by a FLIPR device.
# Briefly, similarly as for the reverse mode, for the forward mode transport assay 18000 cells per well were seeded into a 96 well microplate (Corning COSTAR 3904) and incubated overnight in culture medium (cf. above). A total volume of 100 μl medium per well was used. For the preparation of the FLIPR assay, the culture medium was removed from the plates and 100 μl of assay buffer (133.8 mM NaCl (Sigma, S5886); 4.7 mM KCl (Sigma, P3911); 1.25 mM MgCl2 (Merck, 1.05833.0250); 3.5 mM CaCl2 (Merck, 1.02083.0250); 5 mM glucose (Sigma, G7021); 10 mM Hepes (Sigma, H4034); pH 7.4)) were added to each well in a washing step. Assay buffer was removed, and 100 μl of a solution of the test compound in assay buffer in different concentrations were added into the wells. Further, 100 μl of dye solution (0.09% (v/v) calcium indicator dye, 9.1% (v/v) signal enhancer (from PBX Calcium Assay Kit); in assay buffer) were added into each well. The plates were incubated in the dark at room temperature for 60 min. Meanwhile a 10 μM solution of lonomycin in assay buffer (additionally containing 0.05% fetal calf serum (cf. above); 4° C.) was prepared and stored in the wells of a 96 well microplate (96 well microplate, polypropylene, U-shape (Greiner Bio-One, 650201)). The fluorescence monitoring was performed at 60 measuring points with measurement intervals of 2 sec. After the fifth measuring point, 50 μl of the lonomycin solution were added to each well of the assay plate to give a final lonomycin concentration of 2 μM. For the determination of the IC50 values the minimal fluorescence value was subtracted from the maximal fluorescence value for the fifteenth to fifty-fifth measuring points. The calculation of the IC50 values via the percentage inhibitions of Ca^2+ efflux out of cells (forward mode) effected by the test compound was performed in Biost@t Speed 2.0. “NCX1fw IC50” in Table 2 means the IC50 value (in μM (micromol/liter)) for inhibition of NCX1 in forward mode.
row,Molecule,IC50 [µM]
1,"Cc1ccccc1[C@H]1CCc2cc(O[C@H]3CC[C@H](C(=O)NCCO)CC3)ccc2O1 [Example 267, trans-4-((R)-2-o-tolyl-chroman-6-yloxy)-cyclohexanecarboxylic acid (2-hydroxy-ethyl)-amide]",4.4
2,"Cc1ccccc1C1CCc2cc(O[C@H]3CC[C@@H](C(=O)NCCO)CC3)ccc2O1 (single isomer, unassigned) [Example 270, cis-4-(2-o-tolyl-chroman-6-yloxy)-cyclohexanecarboxylic acid (2-hydroxy-ethyl)-amide]",1
3,"Cc1ccccc1C1CCc2cc(O[C@H]3CC[C@@H](C(=O)NCCO)CC3)ccc2O1 (single isomer, unassigned) [Example 269, cis-4-(2-o-tolyl-chroman-6-yloxy)-cyclohexanecarboxylic acid (2-hydroxy-ethyl)-amide]",3.1
